The text below walks through data of publication PMC6199744, “Development of Chemical Proteomics for the Folateome and Analysis of the Kinetoplastid Folateome” (ACS Infectious Diseases, 2018).

Where two headings read alike, the source gives them in different places.

What all share (type): binding
Assay [1] addresses T1, HeLa cell extract proteins (Homo sapiens, UniProt O60701).
T1 construct: endogenous in cells; host or cells: HeLa cell extract
T1 sequence (O60701 1-494): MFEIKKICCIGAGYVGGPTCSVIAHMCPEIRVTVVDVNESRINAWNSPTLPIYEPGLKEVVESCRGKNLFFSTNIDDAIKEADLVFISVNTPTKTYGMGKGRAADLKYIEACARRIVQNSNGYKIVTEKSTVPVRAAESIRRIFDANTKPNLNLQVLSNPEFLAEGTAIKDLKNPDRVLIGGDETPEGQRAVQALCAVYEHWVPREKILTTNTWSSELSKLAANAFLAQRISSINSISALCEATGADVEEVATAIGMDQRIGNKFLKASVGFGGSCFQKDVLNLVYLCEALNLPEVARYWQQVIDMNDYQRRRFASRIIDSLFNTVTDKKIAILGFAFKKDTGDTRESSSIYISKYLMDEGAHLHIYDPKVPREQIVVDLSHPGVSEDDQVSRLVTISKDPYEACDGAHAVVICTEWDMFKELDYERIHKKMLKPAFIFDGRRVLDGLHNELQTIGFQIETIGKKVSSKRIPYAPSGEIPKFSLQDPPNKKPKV

Assay [2] deals with T2, HeLa cell extract proteins (Homo sapiens, UniProt P24752).
T2 construct: endogenous in cells; host or cells: HeLa cell extract
T2 sequence (P24752 34-427): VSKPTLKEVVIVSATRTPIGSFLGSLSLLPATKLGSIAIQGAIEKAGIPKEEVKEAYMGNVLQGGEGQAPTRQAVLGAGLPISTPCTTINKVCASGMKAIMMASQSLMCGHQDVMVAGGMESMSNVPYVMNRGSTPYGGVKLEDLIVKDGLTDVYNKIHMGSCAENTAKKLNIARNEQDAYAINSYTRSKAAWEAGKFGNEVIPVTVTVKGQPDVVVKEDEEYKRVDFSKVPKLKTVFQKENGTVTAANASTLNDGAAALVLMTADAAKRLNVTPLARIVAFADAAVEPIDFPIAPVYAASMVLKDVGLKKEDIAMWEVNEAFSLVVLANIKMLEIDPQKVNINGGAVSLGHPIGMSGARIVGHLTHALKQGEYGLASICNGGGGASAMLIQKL

Assay [3] deals with T3, HeLa cell extract proteins (Homo sapiens, UniProt P49773).
T3 construct: endogenous in cells; host or cells: HeLa cell extract

Assay [4] has as its target T4, HeLa cell extract proteins (Homo sapiens, UniProt P50502).
T4 construct: endogenous in cells; host or cells: HeLa cell extract
T4 sequence (P50502 1-369): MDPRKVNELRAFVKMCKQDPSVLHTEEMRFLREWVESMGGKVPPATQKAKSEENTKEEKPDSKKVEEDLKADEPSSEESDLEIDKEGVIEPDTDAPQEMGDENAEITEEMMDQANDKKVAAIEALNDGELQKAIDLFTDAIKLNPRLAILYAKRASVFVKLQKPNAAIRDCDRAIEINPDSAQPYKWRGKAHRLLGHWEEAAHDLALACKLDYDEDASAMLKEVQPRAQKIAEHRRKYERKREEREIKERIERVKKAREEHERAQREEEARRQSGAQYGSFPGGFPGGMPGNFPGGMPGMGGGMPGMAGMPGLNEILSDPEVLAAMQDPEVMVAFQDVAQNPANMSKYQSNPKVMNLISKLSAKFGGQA

The target of assay [5] is T5, HeLa cell extract proteins (Homo sapiens, UniProt P53634).
T5 construct: endogenous in cells; host or cells: HeLa cell extract

Assay [6] addresses T6, HeLa cell extract proteins (Homo sapiens, UniProt Q02218).
T6 construct: endogenous in cells; host or cells: HeLa cell extract
T6 sequence (Q02218 41-1023): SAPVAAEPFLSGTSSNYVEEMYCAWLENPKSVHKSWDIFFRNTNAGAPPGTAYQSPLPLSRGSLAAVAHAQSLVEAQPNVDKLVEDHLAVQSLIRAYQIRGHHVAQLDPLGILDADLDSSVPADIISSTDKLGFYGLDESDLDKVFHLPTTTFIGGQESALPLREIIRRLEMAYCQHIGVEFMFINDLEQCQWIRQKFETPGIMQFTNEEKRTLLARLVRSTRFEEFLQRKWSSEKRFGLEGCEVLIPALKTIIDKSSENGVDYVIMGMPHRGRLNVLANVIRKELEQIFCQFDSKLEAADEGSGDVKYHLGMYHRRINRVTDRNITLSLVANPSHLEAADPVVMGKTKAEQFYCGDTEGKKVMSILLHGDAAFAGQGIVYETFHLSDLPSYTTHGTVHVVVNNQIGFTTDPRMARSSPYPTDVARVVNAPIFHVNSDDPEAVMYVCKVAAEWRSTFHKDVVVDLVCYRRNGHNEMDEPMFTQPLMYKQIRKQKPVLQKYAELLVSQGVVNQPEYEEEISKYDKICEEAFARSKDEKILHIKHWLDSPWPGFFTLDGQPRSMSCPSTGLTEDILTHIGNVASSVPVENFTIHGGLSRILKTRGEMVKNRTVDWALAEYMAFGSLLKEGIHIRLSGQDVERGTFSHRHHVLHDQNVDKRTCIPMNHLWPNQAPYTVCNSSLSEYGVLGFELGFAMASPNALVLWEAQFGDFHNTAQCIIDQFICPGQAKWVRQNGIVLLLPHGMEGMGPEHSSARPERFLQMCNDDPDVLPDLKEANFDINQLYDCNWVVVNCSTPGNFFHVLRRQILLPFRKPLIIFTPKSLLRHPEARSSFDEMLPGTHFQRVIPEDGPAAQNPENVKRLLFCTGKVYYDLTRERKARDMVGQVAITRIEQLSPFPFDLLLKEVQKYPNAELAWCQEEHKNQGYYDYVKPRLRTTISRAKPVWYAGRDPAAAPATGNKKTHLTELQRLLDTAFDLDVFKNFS

In assay [7] the target is T7, HeLa cell extract proteins (Homo sapiens, UniProt Q15120).
T7 construct: endogenous in cells; host or cells: HeLa cell extract

Assay [8] concerns the target T8, HeLa cell extract proteins (Homo sapiens, UniProt Q15436).
T8 construct: endogenous in cells; host or cells: HeLa cell extract

Assay [9] deals with HeLa cell extract proteins.
Setting [10] is: HeLa; captured protein LOC442497.
Setting [11] is: HeLa; protein ABCB7 (ISOFORM 2 OF ATP-BINDING CASSETTE SUB-FAMILY B MEMBER 7, MIT[…]).
[12] abbreviates: HeLa; protein ASAH1 (N-ACYLSPHINGOSINE AMIDOHYDROLASE (ACID CERAMIDASE) 1 ISOFORM B).
The mark [13] stands for this setting: HeLa; protein MYL6 (ISOFORM SMOOTH MUSCLE OF MYOSIN LIGHT POLYPEPTIDE 6).
Setting [14] is: HeLa; protein PSMA1 (ISOFORM LONG OF […] ALPHA TYPE 1).
Where [15] appears, read: HeLa; protein PSME1 ([…] SUBUNIT 1 ISOFORM 2).

T5 sequence (P53634 25-463): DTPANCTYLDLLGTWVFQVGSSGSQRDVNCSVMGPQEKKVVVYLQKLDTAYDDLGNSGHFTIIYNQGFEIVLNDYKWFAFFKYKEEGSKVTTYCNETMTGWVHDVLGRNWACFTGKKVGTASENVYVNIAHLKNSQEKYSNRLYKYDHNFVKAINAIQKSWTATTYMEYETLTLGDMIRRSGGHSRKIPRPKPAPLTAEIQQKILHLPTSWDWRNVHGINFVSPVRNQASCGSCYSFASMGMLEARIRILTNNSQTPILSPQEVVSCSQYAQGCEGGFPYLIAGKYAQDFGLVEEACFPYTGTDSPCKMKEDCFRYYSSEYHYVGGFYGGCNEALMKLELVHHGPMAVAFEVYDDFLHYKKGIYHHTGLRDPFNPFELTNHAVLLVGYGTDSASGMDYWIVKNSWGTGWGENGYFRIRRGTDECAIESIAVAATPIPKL
T3 sequence (P49773 whole entry): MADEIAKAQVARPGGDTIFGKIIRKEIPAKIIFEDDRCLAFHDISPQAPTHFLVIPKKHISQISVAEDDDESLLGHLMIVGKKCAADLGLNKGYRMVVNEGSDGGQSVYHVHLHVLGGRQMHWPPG
T8 sequence (Q15436 whole entry): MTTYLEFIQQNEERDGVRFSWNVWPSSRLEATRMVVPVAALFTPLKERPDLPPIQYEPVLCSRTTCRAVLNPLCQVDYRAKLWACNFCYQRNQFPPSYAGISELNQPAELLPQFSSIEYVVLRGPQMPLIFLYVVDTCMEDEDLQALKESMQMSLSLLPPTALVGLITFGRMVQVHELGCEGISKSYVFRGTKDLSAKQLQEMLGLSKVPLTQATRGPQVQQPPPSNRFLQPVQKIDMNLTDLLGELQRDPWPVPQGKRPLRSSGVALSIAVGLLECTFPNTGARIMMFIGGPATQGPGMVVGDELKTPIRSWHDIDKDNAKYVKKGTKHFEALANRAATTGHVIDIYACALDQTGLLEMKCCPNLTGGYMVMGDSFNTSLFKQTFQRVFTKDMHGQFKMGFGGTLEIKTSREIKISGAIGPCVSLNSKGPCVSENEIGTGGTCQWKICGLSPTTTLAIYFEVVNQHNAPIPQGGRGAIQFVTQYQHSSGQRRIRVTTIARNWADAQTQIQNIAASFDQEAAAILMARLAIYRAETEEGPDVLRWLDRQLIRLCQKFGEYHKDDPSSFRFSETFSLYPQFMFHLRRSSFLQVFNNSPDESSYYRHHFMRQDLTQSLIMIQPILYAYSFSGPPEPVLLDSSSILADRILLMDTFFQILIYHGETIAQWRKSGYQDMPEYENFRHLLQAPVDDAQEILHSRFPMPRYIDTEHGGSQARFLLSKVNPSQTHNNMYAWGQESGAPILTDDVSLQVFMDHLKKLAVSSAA
T7 sequence (Q15120 whole entry): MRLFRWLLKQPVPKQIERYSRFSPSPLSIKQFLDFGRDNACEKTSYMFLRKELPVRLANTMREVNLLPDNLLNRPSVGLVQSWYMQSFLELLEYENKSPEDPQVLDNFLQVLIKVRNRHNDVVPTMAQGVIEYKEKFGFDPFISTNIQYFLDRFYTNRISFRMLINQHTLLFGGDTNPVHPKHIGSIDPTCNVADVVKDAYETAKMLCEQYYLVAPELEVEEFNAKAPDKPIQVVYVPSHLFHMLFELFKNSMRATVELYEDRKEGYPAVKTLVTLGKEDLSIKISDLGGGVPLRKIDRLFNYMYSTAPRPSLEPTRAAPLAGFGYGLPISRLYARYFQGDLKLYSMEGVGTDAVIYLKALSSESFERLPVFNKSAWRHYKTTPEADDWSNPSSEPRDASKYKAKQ

Take `Nc1nc2c(c(=O)[nH]1)N(C=O)C(CNc1ccc(C(=O)N[C@@H](CCC(=O)O)C(=O)O)cc1)CN2` (some centres unmarked) [LEU, leucovorin]: the “fold changes relative to vehicle control” value stood at 1.16 in assay [1] (HeLa, protein UGDH); 1 in [2] (protein ACAT1, HeLa); 1.12 in assay [3] (HeLa, captured protein HINT1); 0.98 in assay [4] (protein ST13, HeLa); 1.03 in assay [5] (HeLa, protein CTSC (DIPEPTIDYL-PEPTIDASE 1 PRECURSOR)); 1.13 in assay [6] (HeLa, captured protein OGDH). Further, the “fold changes relative to vehicle control” value in [7] (HeLa, protein PDK3) is 0.93; in assay [8] (HeLa, protein SEC23A), 0.94; in [9] (HeLa; captured protein EIF1AP1) it was 0.99; in [9] (setting [10]), 1.06; in assay [9] (setting [11]) it was 1.18; in assay [9] (setting [12]), 1.17. The “fold changes relative to vehicle control” value in assay [9] (HeLa; protein GTPBP3 (ISOFORM 2 OF TRNA MODIFICATION GTPASE GTPBP3, MITOCHONDRIAL PRECURSOR)) is recorded as 0.27; in assay [9] (HeLa; protein LOC654188), 0.98; in assay [9] (setting [13]) it was 1.06; in assay [9] (HeLa; protein NME1-NME2), 0.99; in [9] (setting [14]) it was 1.18; in [9] (setting [15]) it was 1.03. In addition, the figures for the “fold changes relative to vehicle control” value in assay [9] (HeLa; protein RPLP0-LIKE), in assay [9] (protein HIST2H2BA; HeLa) and in [9] (protein LOC646960; HeLa) were 0.86, 0.92 and 0.84, respectively.

Consider `Nc1nc2[nH]cc(CCc3ccc(C(=O)N[C@@H](CCC(=O)O)C(=O)O)cc3)c2c(=O)[nH]1` [PTX, pemetrexed], for which the “fold changes relative to vehicle control” value is 1.21 in [1]; 0.9 in [2]; 0.77 in [3]; 1.12 in assay [4]; 0.84 in assay [5]; 0.9 in [6]. In addition, the “fold changes relative to vehicle control” value in assay [7] amounted to 0.9; in assay [8] it was 0.94; in assay [9] (HeLa; captured protein EIF1AP1) it was 0.95; in assay [9] (setting [10]), 1.08; in assay [9] (setting [11]) it was 1.19; in assay [9] (setting [12]), 1.19. For the same molecule, the “fold changes relative to vehicle control” value was 0.49 in [9] (HeLa; protein GTPBP3 (ISOFORM 2 OF TRNA MO[…] GTPBP3, MIT[…])); 1.12 in assay [9] (HeLa; protein LOC654188); 1.4 in assay [9] (setting [13]); 1.08 in assay [9] (HeLa; protein NME1-NME2); 1.09 in assay [9] (setting [14]); 1 in [9] (setting [15]). Further, the results for the “fold changes relative to vehicle control” value in [9] (HeLa; protein RPLP0-LIKE), in assay [9] (protein HIST2H2BA; HeLa) and in [9] (protein LOC646960; HeLa) were 0.92, 0.94 and 0.95, respectively.

As to `CCCCCCOc1ccc(Cc2cnc(N)nc2N)cc1` [compound 1], the “fold changes relative to vehicle control” value in assay [1] (protein UGDH, HeLa) turned out to be 1.13; in assay [2] (protein ACAT1, HeLa), 1.22; in assay [3] (HeLa, protein HINT1), 1.03; in assay [4] (HeLa, protein ST13 (HSC70-INTERACTING PROTEIN.)), 1.44 fold; in assay [5] (protein CTSC, HeLa), 0.89; in assay [6] (protein OGDH, HeLa), 1.05. Also, the “fold changes relative to vehicle control” value is 1 in [7] (captured protein PDK3, HeLa); 1.1 in assay [8] (HeLa, protein SEC23A); 1.4 fold in assay [9] (HeLa; protein A8MV93_HUMAN (SIMILAR TO CYTOCHROME C.)); 1.26 fold in assay [9] (HeLa; protein CTNNA1 (ISOFORM 2 OF CATENIN ALPHA-1.)); 1.5 fold in [9] (HeLa; protein EIF5A (ISOFORM 2 OF EUKARYOTIC TRANSLATION INITIATION FACTOR 5A-1.)); 1.15 in assay [9] (HeLa; protein LOC646960). Also, the “fold changes relative to vehicle control” value amounted to 1.34 fold in [9] (HeLa; protein LOC654188 (SIMILAR TO PEPT[…] A-LIKE.)); 1.36 fold in [9] (HeLa; protein NME1-NME2 (NUCLEOSIDE DIPHOSPHATE KINASE.)); 1.3 in assay [9] (protein EIF1AP1; HeLa); 1.12 in [9] (protein LOC442497; HeLa); 0.94 in assay [9] (protein RPLP0-LIKE; HeLa).
